Where “and” joins values, the source holds several entries; their conditions need not be identical. Identical values can stand only once. Entries after “also recorded” stand apart in the source; their conditions may differ.
Assays:
[1] = Metabolism of DB844 in vervet monkey liver microsomes; format: in vitro ADME; conditions: 10 µM DB844, 0.2 mg/ml male vervet monkey liver microsomes
Description: The metabolism of DB844 was investigated using liver microsomes, prepared from a male vervet monkey by XenoTech, LLC (Lenexa, KS), in the presence of NADPH as described previously with modifications. Briefly, incubation mixtures (1 ml at pH7.4, in triplicate) contained 10 µM DB844 and 0.2 mg/ml monkey liver microsomes. After a 5-min equilibration period at 37°C, reactions were initiated with the addition of NADPH. Aliquots (50 µl) of the reaction mixtures were removed at 0, 5, 10, 15, 30, 60, 90, and 120 min and mixed with 25 µl of ice-cold acetonitrile. The mixtures were centrifuged (10,000×g for 5 min at 4°C) and the supernatants were analyzed by HPLC/UV using the same method as previously described for DB289 [22]. […] DB844 and metabolites were quantified using a single-concentration calibration curve generated using synthetic standards.

[2] = test system: Trypanosoma brucei rhodesiense KETRI 2537; assay: Efficacy in vervet monkey model of second stage HAT; format: in vivo; conditions: for TOC test at 300 days post last dose / EoT test at 1 day post last dose (trypanosomes in blood/CSF) / EoT test at 4 days post last dose (trypanosomes in blood/CSF): individual monkeys; for EoT test at 1 day post last dose (trypanosomes in blood/CSF) / EoT test at 4 days post last dose (trypanosomes in blood/CSF): Neg/Pos
Text: A pleomorphic isolate, T.b rhodesiense KETRI 2537, a derivative of EATRO 1989 that was isolated from a patient in Uganda by direct inoculation of blood and lymph node aspirate into a monkey and later cryopreserved at KARI- TRC [18], was used. This isolate is the basis of the KETRI vervet monkey and mouse models and has been widely used for drug efficacy trials, [20].
Sixteen vervet monkeys in two groups of eight monkeys each (four males and four females) were used. After a 14-day baseline weight, clinical and haematology data collection period, the sixteen monkeys were infected by intravenous injection of approximately 10^4 trypanosomes diluted from infected blood of immuno-suppressed donor Swiss white mice. Parasitaemia post infection was determined by examination of wet film of ear prick blood and/or examination of buffy coat after centrifugation of blood collected in a heparinised capillary tube as described previously. Parasitaemia in wet film was estimated using the rapid matching method of Herbert and Lumsden. In addition, monkeys were confirmed to be in second stage disease by detection of trypanosomes in the CSF with or without elevated white cell counts above 5 cells/µl, [20], [21], [23]. At 28 days post infection (DPI), the animals were treated with DB844 via oral gavage at 5 mg/kg qd×10 days (group I, n = 8) or 6 mg/kg qd×14 days (group II, n = 8), utilising a dose volume of 1 ml/kg. The monkeys were examined for parasitaemia every day during drug treatment and then twice weekly until ≥300 days post dosing, at which point monkeys were considered cured if they remained clinically normal and parasite-free as determined below.

[3] = Safety monitoring (clinical, haematology, clinical chemistry) in infected DB844-treated monkeys; format: in vivo, vervet monkey; conditions: for RBC / Haematocrit / Hemoglobin / Mean corpuscular haemoglobin / Mean corpuscular volume / Platelet counts / WBC counts: infected monkeys
Description: Haematology samples (1 ml) were analysed using an AC^3diffT Coulter Counter (Miami, Florida, USA). Clinical chemistries were determined using a Humalyzer analyser system. Finally, plasma and CSF were analyzed for drug and metabolite concentrations using an HPLC-tandem Mass Spectrometry (HPLC-MS/MS) procedure as described below.

[4] = test system: 1st stage experimental murine HAT infections; parameters: method as in PMID 19620327; conditions: DB844 at 25 mg/kg; cited from earlier work
[5] = Toxicity study of 10-day oral DB844 regimens in uninfected monkeys
[6] = Pharmacokinetics (plasma and CSF) in infected monkeys after last DB844 dose
[7] = group I: DB844 5 mg/kg×10 days per os, 28–37 DPI, 5 mg/kg
[8] = group II: DB844 6 mg/kg×14 days per os, 28–41 DPI, 6 mg/kg
[9] = relapsed monkeys of both groups
[10] = infected monkeys after oral DB844 treatment, days post last dose
[11] = DB844 6 mg/kg×14 days, 41 DPI (0 days post last dose)
[12] = DB844 6 mg/kg×14 days, 48 DPI (7 days post last dose)
[13] = DB844 6 mg/kg×14 days, 69 DPI (28 days post last dose)
[14] = DB844 6 mg/kg×14 days, 104 DPI (63 days post last dose)
[15] = uninfected monkeys, DB844 5 mg/kg×10 days orally, monkeys 572F, 582M
[16] = uninfected monkeys, DB844 10 mg/kg×10 days orally, monkeys 541F, 578M, 10 mg/kg
[17] = uninfected monkeys, DB844 10 mg/kg×10 days orally, monkeys 541F, 578M, parenthesis = days post first dose when observed, 10 mg/kg
[18] = vervet 578, 10 mg/kg×10 days orally, uninfected
[19] = plasma, after the 14th oral dose of DB844 at 6 mg/kg, n = 7, geometric mean, analyte = label

## CONC(=N)c1ccc(-c2ccc(-c3ccc(C(=N)NOC)cn3)o2)cc1 [DB844, N-methoxy-6-{5-[4-(N-methoxyamidino)phenyl]-furan-2-yl}-nicotinamidine]
[1]
  metabolites formed over a 120 min incubation period: at least seven
[1]; pH 7.4, NADPH, 37°C, pH7.4, read-out: microsomal half-life
  half-life at 10 µM: ~0.233 h
[2]; both groups (5 mg/kg×10 days and 6 mg/kg×14 days)
  EoT provisional cure rate at 4 days post dosing: 100%
[2]; both study groups
  overall cure rate: approximately 40%
[2]; four days post the last drug dose, any monkey
  trypanosomes in the blood or cerebrospinal fluid at end of treatment evaluation: not detected
[2]; [7]
  TOC test at 300 days post last dose: Cured; also recorded: Relapsed
  EoT test at 1 day post last dose (trypanosomes in blood/CSF): Neg and Pos
  EoT test at 4 days post last dose (trypanosomes in blood/CSF): neg and Neg
[2]; [8]
  TOC test at 300 days post last dose: Cured; also recorded: Relapsed
  EoT test at 1 day post last dose (trypanosomes in blood/CSF): Neg and Pos
[2]; group II: DB844 6 mg/kg×14 days per os, 28–41 DPI
  EoT test at 4 days post last dose (trypanosomes in blood/CSF): Neg
[2]; oral DB844, best of the two regimens
  cure rate in the vervet monkey model of 2nd stage HAT: up to 43%
[2]; [9]
  median (range) time to trypanosome recrudescence in CSF: 133 (35–322, n = 9) days and 133 days
  median (range) time to trypanosome recrudescence in blood: 261 (239–322, n = 3) days and 261 days
[3]; group II, 6 mg/kg, after 7 daily drug doses (34 DPI), baseline 4.5±0.9 IU
  mean plasma ALT at its peak: 13.6±3.8 IU
[3]; group II, 6 mg/kg×14 days
  alkaline phosphatase change during and after drug administration: no significant changes
  plasma creatinine change from baseline: not significant
  total bilirubin and direct bilirubin changes: none of the changes were statistically significant
[3]; group II, 6 mg/kg×14 days, 24 hours post dosing
  increase of mean plasma AST above baseline: 3.3 times
[3]; group II, 6 mg/kg×14 days, 24 hours post dosing, baseline 37.0±4.8 IU
  mean (± SE) plasma AST: 121±21.6 IU
[3]; group II, 6 mg/kg×14 days, from 48 h post dosing (43 DPI)
  blood urea nitrogen (BUN) as indicator of renal function: mild and reversible decrease in kidney function
[3]; group II, efficacy study
  increases in plasma transaminases (AST and ALT): 2–3 fold
  time to reversal of transaminase elevations after the last drug dose: 4 to 7 days
[3]; [10]
  time to re-establishment of baseline RBC associated parameters: 28 to 63 days
  time to re-establishment of baseline platelet parameters: within seven
[3]; infected monkeys treated with oral DB844 (5 and 6 mg/kg)
  drug related haematology changes: no drug related haematology changes; also recorded: No DB844-related haematological aberrations
[3]; DB844 6 mg/kg×14 days (28–41 DPI), 41 DPI (0 days post last dose)
  RBC: 4.8±0.3, p<0.0001 ×10^6/µl
[3]; [11]
  Haematocrit: 31.6±1.6, p<0.0001%
  Hemoglobin: 11.2±0.7, p<0.0001 g/dl
  Mean corpuscular haemoglobin: 23.0±0.3 p<0.008 g/dl
  Mean corpuscular volume: 65.3±0.9, p = 0.0001 fl
  Platelet counts: 406.5±22.5 p = 0.05 ×10^3/µl
  WBC counts: 7.1±1.0, p = 0.12 ×10^3/µl
[3]; [12]
  Haematocrit: 31.8±1.6, p<0.0001%
  Hemoglobin: 11.5±0.6, p<0.0001 g/dl
  Mean corpuscular haemoglobin: 23.3±0.4 p = 0.07 g/dl
  Mean corpuscular volume: 64.8±0.9, p = 0.0001 fl
  Platelet counts: 390.7±32.4, p = 0.11 ×10^3/µl
  RBC: 4.9±0.2, p<0.004 ×10^6/µl
  WBC counts: 5.6±1.2, p = 0.9 ×10^3/µl
[3]; [13]
  Haematocrit: 43.8±1.6, p = 0.91%
  Hemoglobin: 12.8±0.5, p = 0.15 g/dl
  Mean corpuscular haemoglobin: 23.4±0.6, p = 0.13 g/dl
  Mean corpuscular volume: 79.8±1.4, p = 0.11 fl
  Platelet counts: 332.2±11.9, p = 0.78 ×10^3/µl
  RBC: 5.5±0.2, p = 0.55 ×10^6/µl
  WBC counts: 5.9±0.8, p = 0.8 ×10^3/µl
[3]; [14]
  Haematocrit: 46.7±2.7, p = 0.91%
  Hemoglobin: 14.1±0.8, p = 0.11 g/dl
  Mean corpuscular haemoglobin: 23.3±0.5 p = 0.21 g/dl
  Mean corpuscular volume: 77.0±1.5, p = 0.21 fl
  Platelet counts: 294.3±17.4 p = 0.55 ×10^3/µl
  RBC: 6.1±0.3 p = 0.02 ×10^6/µl
  WBC counts: 5.1±0.1, p = 0.4 ×10^3/µl
[4]
  cure of 1st stage experimental murine HAT infection: curative
[5]; uninfected monkeys, 5 mg/kg/day orally for 10 days
  monkeys in which no adverse clinical signs of toxicity were elicited: 2/2
[5]; uninfected monkeys, 10 mg/kg/day orally for 10 days
  monkeys with overt toxicity: 1/2
[5]; uninfected monkeys, 20 mg/kg/day orally (8 doses given)
  monkeys with overt toxicity: 2/2
[5]; uninfected monkeys, 5, 10 or 20 mg/kg/day orally
  weight loss (maximum among adverse clinical events): up to 10.5%
[5]; [15]
  Adverse clinical events: GIT changes: None
  Adverse clinical events: Jaundice: None
  Adverse clinical events: Reduced feed intake: None
  Daily doses completed: 10/10
  Euthanised due to toxicity: No
[5]; uninfected monkeys, DB844 5 mg/kg×10 days orally, monkeys 572F, 582M, 5 mg/kg
  % weight loss: 1.8% and 4.9%
[5]; uninfected monkeys, DB844 10 mg/kg×10 days orally, monkeys 541F, 578M
  Daily doses completed: 10/10
[5]; [16]
  % weight loss: 4.6% and 10.5%
  Adverse clinical events: Jaundice: None and yes
[5]; [17]
  Adverse clinical events: GIT changes: None and Yes (16)
  Adverse clinical events: Reduced feed intake: Yes (11); also recorded: Yes (14)
[5]; uninfected monkeys, DB844 10 mg/kg×10 days orally, monkeys 541F, 578M, parenthesis = days post first dose, 10 mg/kg
  Euthanised due to toxicity: No and Yes (16)
[5]; uninfected monkeys, DB844 20 mg/kg×10 days orally, monkeys 543F, 606M
  Adverse clinical events: Jaundice: yes
[5]; uninfected monkeys, DB844 20 mg/kg×10 days orally, monkeys 543F, 606M, 20 mg/kg
  % weight loss: 9.1% and 6.5%
[5]; uninfected monkeys, DB844 20 mg/kg×10 days orally, monkeys 543F, 606M, dosing withdrawn on overt toxicity
  Daily doses completed: 8/10
[5]; uninfected monkeys, DB844 20 mg/kg×10 days orally, monkeys 543F, 606M, parenthesis = days post first dose when observed
  Adverse clinical events: GIT changes: Yes (8)
[5]; uninfected monkeys, DB844 20 mg/kg×10 days orally, monkeys 543F, 606M, parenthesis = days post first dose when observed, 20 mg/kg
  Adverse clinical events: Reduced feed intake: Yes (8); also recorded: Yes (9)
[5]; uninfected monkeys, DB844 20 mg/kg×10 days orally, monkeys 543F, 606M, parenthesis = days post first dose, 20 mg/kg
  Euthanised due to toxicity: Yes (9); also recorded: Yes (10)
[5]; uninfected monkeys, middle dose 10 mg/kg×10 days
  monkeys in which the dose was well tolerated: 1/2
[5]; [18]
  mean corpuscular volume (MCV) after rise from 76.6: 86.9 fL
  red cell distribution width (RDW) after rise from 15: 18.4
  rise in mean corpuscular volume (MCV): 13%
  rise in red cell distribution width (RDW): 23%
[6]; after last dose of DB844 6 mg/kg×14 days
  detection in CSF after the 1 h post dose sample: not detected thereafter
[6]; monkey, CSF, oral, 6 mg/kg
  concentration at 1 h: 17 nM
[6]; monkey, in vivo, po, 6 mg/kg
  half-life: 5.8 h
[6]; monkey, plasma, po, 6 mg/kg
  CL/F: 167 mL/min/kg
  half-life: 5.76 h
[6]; monkey, plasma, po, 6 mg/kg, Tmax, plasma, after the 14th oral dose of DB844 at 6 mg/kg, n = 7, median, analyte = label
  Tmax: 0.96 h
[6]; monkey, plasma, po, 6 mg/kg, time of peak plasma concentration, after the last (14th) dose of DB844 at 6 mg/kg, analyte = label
  Tmax: 1 h
[6]; [19]
  AUC(0-∞): 70 nmol·days/L
  AUClast: 68 nmol·days/L

From publication PMC3404106, “Pharmacology of DB844, an Orally Active aza Analogue of Pafuramidine, in a Monkey Model of Second Stage Human African Trypanosomiasis” (PLoS Neglected Tropical Diseases, 2012)
